Measured values: PubChem BioAssay AID2060904 (Molecular Pharmacology Branch, DTP, NCI, 2025)

Test system: 349418-098-R-PDC complex spheroid viability
Experiment: Anticancer human tumor 349418-098-R-PDC patient-derived lung adenocarcinoma cell line growth inhibition [RAS]
Conditions: for IC50: curve of first compound; for viability, T/C: stronger effect = lower value
How it was run: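 Tumour cells grown as complex spheroids with HUVEC endothelial cells and mesenchymal stem cells, treated with RAS pathway inhibitor combinations. Each agent spans half-log steps from near clinical Cmax, or 10 microM where Cmax is unknown.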
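Also: spheroids exposed to compound for seven days before viability readout.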

SMILES: C=CC(=O)N1CCN(c2nc(OCC3CCCN3C)nc3c(F)c(-c4nc(N)cc(C)c4C(F)(F)F)c(Cl)cc23)C(C)C1 (configuration not stated) + C#Cc1c(F)ccc2cc(O)cc(-c3ncc4c(N5CC6CCC(C5)N6)nc(OCC56CCCN5CC(F)C6)nc4c3F)c12
- IC50 (second compound 0.0316 µM): > 1000 nM
- IC50 (second compound 0.1 µM): > 1000 nM
- IC50 (second compound 0.316 µM): > 1000 nM
- IC50 (second compound 1 µM): > 1000 nM
- IC50 (second compound 3.16 µM): > 1000 nM
- IC50 (second compound 10 µM): 272 nM
- viability, T/C (second compound 0.0316 µM, first compound 0.00316 µM): 82.8%
- viability, T/C (second compound 0.0316 µM, first compound 0.01 µM): 105%
- viability, T/C (second compound 0.0316 µM, first compound 0.0316 µM): 112%
- viability, T/C (second compound 0.0316 µM, first compound 0.1 µM): 75.1%
- viability, T/C (second compound 0.0316 µM, first compound 0.316 µM): 111%
- viability, T/C (second compound 0.0316 µM, first compound 1 µM): 69.8%
- viability, T/C (second compound 0.1 µM, first compound 0.00316 µM): 74.3%
- viability, T/C (second compound 0.1 µM, first compound 0.01 µM): 124%
- viability, T/C (second compound 0.1 µM, first compound 0.0316 µM): 104%
- viability, T/C (second compound 0.1 µM, first compound 0.1 µM): 87.2%
- viability, T/C (second compound 0.1 µM, first compound 0.316 µM): 98.3%
- viability, T/C (second compound 0.1 µM, first compound 1 µM): 83.9%
- viability, T/C (second compound 0.316 µM, first compound 0.00316 µM): 65.6%
- viability, T/C (second compound 0.316 µM, first compound 0.01 µM): 125%
- viability, T/C (second compound 0.316 µM, first compound 0.0316 µM): 109%
- viability, T/C (second compound 0.316 µM, first compound 0.1 µM): 79.7%
- viability, T/C (second compound 0.316 µM, first compound 0.316 µM): 89.3%
- viability, T/C (second compound 0.316 µM, first compound 1 µM): 87.6%
- viability, T/C (second compound 1 µM, first compound 0.00316 µM): 81%
- viability, T/C (second compound 1 µM, first compound 0.01 µM): 114%
- viability, T/C (second compound 1 µM, first compound 0.0316 µM): 82.9%
- viability, T/C (second compound 1 µM, first compound 0.1 µM): 91.2%
- viability, T/C (second compound 1 µM, first compound 0.316 µM): 83.2%
- viability, T/C (second compound 1 µM, first compound 1 µM): 77.9%
- viability, T/C (second compound 3.16 µM, first compound 0.00316 µM): 77.4%
- viability, T/C (second compound 3.16 µM, first compound 0.01 µM): 105%
- viability, T/C (second compound 3.16 µM, first compound 0.0316 µM): 112%
- viability, T/C (second compound 3.16 µM, first compound 0.1 µM): 73.3%
- viability, T/C (second compound 3.16 µM, first compound 0.316 µM): 116%
- viability, T/C (second compound 3.16 µM, first compound 1 µM): 75.2%
- viability, T/C (second compound 10 µM, first compound 0.00316 µM): 91%
- viability, T/C (second compound 10 µM, first compound 0.01 µM): 75%
- viability, T/C (second compound 10 µM, first compound 0.0316 µM): 85.3%
- viability, T/C (second compound 10 µM, first compound 0.1 µM): 66.8%
- viability, T/C (second compound 10 µM, first compound 0.316 µM): 47.7%
- viability, T/C (second compound 10 µM, first compound 1 µM): 7.82%
